According to patent US10092584B2 (Achillion Pharmaceuticals, Inc., priority 2015, dated 2018):
Like-named read-outs stand apart in the source and are kept apart here.

Target: T1, Human Factor D (Homo sapiens, UniProt P00746)
T1 construct: purified from human serum; purchased Complement Technology, Inc; host or cells: human serum
Test: Human Factor D assay (Example 8)
Assay type: biochemical
Method in brief: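 IC50 values derive from nonlinear regression of Factor D reaction rates against compound concentration. The enzyme, purified from human serum, is used at 80 nM final with a 5 min room-temperature compound preincubation in 50 mM Tris, 1M NaCl, pH 7.5, before 100 μM Z-L-Lys-SBzl plus 100 μM DTNB are added.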

[1] = Table 3, Human Factor D 80 nM, substrate Z-L-Lys-SBzl, read-out: IC50 (Stars)
[2] = Table 1, Human Factor D 80 nM, substrate Z-L-Lys-SBzl, read-out: IC50
[3] = Table 2, Human Factor D 80 nM, substrate Z-L-Lys-SBzl, read-out: IC50

T1 sequence (P00746 26-253): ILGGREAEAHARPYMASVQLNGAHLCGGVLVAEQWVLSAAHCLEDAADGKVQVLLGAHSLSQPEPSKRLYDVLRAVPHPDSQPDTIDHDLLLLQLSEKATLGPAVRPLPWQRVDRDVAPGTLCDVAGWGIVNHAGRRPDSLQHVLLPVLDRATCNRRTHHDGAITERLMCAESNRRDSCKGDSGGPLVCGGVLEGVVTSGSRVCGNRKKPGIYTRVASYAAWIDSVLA

Structure (SMILES) | IC50 [1] [nM] | IC50 [nM] | also measured
NC(=O)c1nc(CC(=O)N2C[C@H](F)C[C@H]2C(=O)Nc2cccc(-c3ccccc3Cl)c2F)n2ccccc12 [Compound 373, 3-(2-((2S,4R)-2-((2′-Chloro-2-fluoro-[1,1′-biphenyl]-3-yl)carbamoyl)-4-fluoropyrrolidin-1-yl)-2-oxoethyl)imidazo[1,5-a]pyridine-1-carboxamide] | < 1000 |  | 
COc1ncc(-c2cn(CC(=O)N3C[C@H](F)C[C@H]3C(=O)Nc3cccc(-c4ccccc4Cl)c3F)nc2C(N)=O)cn1 [Compound 110, 1-(2-((2S,4R)-2-((2′-Chloro-2-fluoro-[1,1′-biphenyl]-3-yl)carbamoyl)-4-fluoropyrrolidin-1-yl)-2-oxoethyl)-4-(2-methoxypyrimidin-5-yl)-1H-pyrazole-3-carboxamide] |  |  | IC50 [2]: > 10000 nM
CC(=O)c1nn(CC(=O)N2C[C@H](F)C[C@H]2C(=O)Nc2cccc(-c3ccc4c(c3)NCCN4)c2F)c2ccccc12 [Compound 436] | < 1000 |  | 
CC(=O)c1nn(CC(=O)N2C[Si](C)(C)C[C@H]2C(=O)NCc2cccc(Cl)c2F)c2ccccc12 [Compound 268, (R)-1-(2-(3-acetyl-1H-indazol-1-yl)acetyl)-N-(3-chloro-2-fluorobenzyl)-3,3-dimethyl-1,3-azasilolidine-5-carboxamide] | 1000 to 10000 |  | 
NC(=O)c1nn(CC(=O)N2C[C@H](F)C[C@H]2C(=O)Nc2cccc(-c3ccc4[nH]cnc4c3Cl)c2F)c2ccccc12 [Compound 122, 1-(2-((2S,4R)-2-(3-(4-chloro-1H-benzo[d]imidazol-5-yl)-2-fluorophenylcarbamoyl)-4-fluoropyrrolidin-1-yl)-2-oxoethyl)-1H-indazole-3-carboxamide] |  | < 1000 | 
CC(=O)c1cn(CC(=O)N2C[C@H](F)C[C@H]2C(=O)NCc2cc(P(=O)(O)O)cc(Cl)c2F)c2ccccc12 [Compound 63, 3-(((2S,4R)-1-(2-(3-acetyl-1H-indol-1-yl)acetyl)-4-fluoropyrrolidine-2-carboxamido)methyl)-5-chloro-4-fluorophenylphos-phonic acid] |  | < 1000 | 
O=C(NCc1cccc(Cl)c1F)[C@@H]1C[C@@H](F)CN1C(=O)Cn1cc(-c2cnco2)c2ccccc21 [Compound 452, (2S,4R)—N-(3-chloro-2-fluorobenzyl)-4-fluoro-1-(2-(3-(oxazol-5-yl)-1H-indol-1-yl)acetyl)pyrrolidine-2-carboxamide] | < 1000 |  | 
NC(=O)c1nn(CC(=O)N2C[C@H](F)C[C@H]2C(=O)Nc2cccc(-c3ccccc3Cl)c2F)c2ccsc12 [Compound 99, 1-(2-((2S,4R)-2-((2′-Chloro-2-fluoro-[1,1′-biphenyl]-3-yl)carbamoyl)-4-fluoropyrrolidin-1-yl)-2-oxoethyl)-1H-thieno[3,2-c]pyrazole-3-carboxamide] |  |  | IC50 [2]: < 1000 nM
O=C(NCc1cccc(Cl)c1F)[C@@H]1C[C@@H](F)CN1C(=O)Cn1nc(I)c2ccncc21 [Compound 52, (2S,4R)-N-(3-chloro-2-fluorobenzyl)-4-fluoro-1-(2-(3-iodo-1H-pyrazolo[3,4-c]pyridin-1-yl)acetyl)pyrrolidine-2-carboxamide] |  |  | IC50 [2]: < 1000 nM
NC(=O)c1nn(CC(=O)N2C(=O)CC[C@H]2C(=O)Nc2cccc(-c3ccccc3Cl)c2F)c2ccccc12 [Compound 135, (S)-1-(2-(2-((2′-Chloro-2-fluoro-[1,1′-biphenyl]-3-yl)carbamoyl)-5-oxopyrrolidin-1-yl)-2-oxoethyl)-1H-indazole-3-carboxamide] |  |  | IC50 [3]: < 1000 nM
CC(=O)c1nn(CC(=O)N2[C@@H]3C[C@@H]3C[C@H]2C(=O)NC/C(F)=C(/C)c2cccc(Cl)c2)c2ccccc12 [Compound 396] | < 1000 |  | 
CC(=O)c1nn(CC(=O)N2C[C@H](F)C[C@H]2C(=O)Nc2cccc(-c3ccc4[nH]cnc4c3Cl)c2F)c2ccccc12 [Compound 461, (2S,4R)-1-(2-(3-acetyl-1H-indazol-1-yl)acetyl)-N-(3-(4-chloro-1H-benzo[d]imidazol-5-yl)-2-fluorophenyl)-4-fluoropyrrolidin-2-carboxamide] | < 1000 |  | 
Cc1sc(Cl)cc1NC(=O)[C@@H]1C[C@@H](F)CN1C(=O)Cn1nc(C(N)=O)c2ccncc21 [Compound 351] | 1000 to 10000 |  | 
CC(=O)c1cn(CC(=O)N2C[C@H](F)C[C@H]2C(=O)Nc2cccc(SC(F)(F)F)c2)c2cc(O)ccc12 [Compound 48, (2S,4R)-1-(2-(3-acetyl-6-hydroxy-1H-indol-1-yl)acetyl)-4-fluoro-N-(3-(trifluoromethylthio)phenyl)pyrrolidine-2-carboxamide] |  | < 1000 | 
CC(=O)c1nn(CC(=O)N2C[Si](C)(C)C[C@H]2C(=O)Nc2cccc(Br)n2)c2ccccc12 [Compound 271, (R)-1-(2-(3-acetyl-1H-indazol-1-yl)acetyl)-N-(6-bromopyridin-2-yl)-3,3-dimethyl-1,3-azasilolidine-5-carboxamide] | 1000 to 10000 |  | 
CC(=O)c1nn(CC(=O)N2C[C@H](F)C[C@H]2C(=O)Nc2cccc(-c3ccc4c(c3)NCC4)c2F)c2ccccc12 [Compound 437, (2S,4R)-1-(2-(3-acetyl-1H-indazol-1-yl)acetyl)-4-fluoro-N-(2-fluoro-3-(indolin-6-yl)phenyl)pyrroli-dine-2-carboxamide] | < 1000 |  | 
CC(=O)c1cn(CC(=O)N2C[C@H](F)C[C@H]2C(=O)Nc2cccc(-c3cc(F)cc(F)c3Cl)c2F)c2ccccc12 [Compound 95, (2S,4R)-1-(2-(3-acetyl-1H-indol-1-yl)acetyl)-N-(2′-chloro-2,3′,5′-trifluorobiphenyl-3-yl)-4-fluoropyrrolidine-2-carboxamide] |  | < 1000 | 
NC(=O)c1nn(CC(=O)N2C(=O)CC[C@H]2C(=O)Nc2cccc(-c3ccccc3Cl)c2F)c2ccccc12 [Compound 260, (S)-1-(2-(2-(2′-Chloro-2-fluorobiphenyl-3-ylcarbamoyl)-5-oxopyrrolidin-1-yl)-2-oxoethyl)-1H-indazole-3-carboxamide] | < 1000 |  | 
CC(=O)c1cn(CC(=O)N2C[C@H](F)C[C@H]2C(=O)Nc2cccc(Br)n2)c2ccc(C3(N4C(=O)c5ccccc5C4=O)CC3)cc12 [Compound 81, (2S,4R)-1-(2-(3-acetyl-5-(1-(1,3-dioxoisoindolin-2-yl)cyclopropyl)-1H-indol-1-yl)acetyl)-N-(6-bromopyridin-2-yl)-4-fluoropyrrolidine-2-carboxamide] |  | < 1000 | 
COC(=O)c1cc2c(s1)c(C(N)=O)nn2CC(=O)N1C[C@H](F)C[C@H]1C(=O)Nc1cccc(-c2ccccc2Cl)c1F [Compound 129, methyl 3-carbamoyl-1-(2-((2S,4R)-2-(2′-chloro-2-fluorobiphenyl-3-ylcarbamoyl)-4-fluoropyrrolidin-1-yl)-2-oxoethyl)-1H-thieno[3,2-c]pyrazole-5-carboxylate] |  |  | IC50 [3]: < 1000 nM
CC(=O)c1cn(CC(=O)N2C[C@H](F)C[C@H]2C(=O)Nc2cccc(Br)n2)c2ccc(C3(NC(=O)c4ncccn4)CC3)cc12 [Compound 119, N-(1-(3-acetyl-1-(2-((2S,4R)-2-(6-bromopyridin-2-ylcarbamoyl)-4-fluoropyrrolidin-1-yl)-2-oxoethyl)-1H-indol-5-yl)cyclopropyl) pyrimidine-2-carboxamide] |  | < 1000 | 
CC(=O)c1cn(CC(=O)N2C[C@H](F)C[C@H]2c2nc3cc(Cl)ccc3[nH]2)c2ccccc12 [Compound 15] |  |  | IC50 [2]: > 10000 nM
CC(=O)n1cc(CC(=O)N2C[C@H](F)C[C@H]2C(=O)Nc2cccc(-c3ccccc3Cl)c2F)c2ccsc21 [Compound 90, (2S,4R)-1-(2-(6-acetyl-6H-thieno[2,3-b]pyrrol-4-yl)acetyl)-N-(2′-chloro-2-fluorobiphenyl-3-yl)-4-fluoropyrrolidine-2-carboxamide] |  |  | IC50 [2]: < 1000 nM
CC(=O)c1nn(CC(=O)N2C[C@H](F)C[C@H]2C(=O)Nc2cccc(-c3ccc4c(c3)CCCN4)c2F)c2ccccc12 [Compound 449, (2S,4R)-1-(2-(3-Acetyl-1H-indazol-1-yl)acetyl)-4-fluoro-N-(2-fluoro-3-(1,2,3,4-tetrahydroquinolin-6-yl)phenyl)pyrrolidine-2-carboxamide] | < 1000 |  | 
CC(=O)c1ccc(Cl)c(-c2cccc(NC(=O)[C@@H]3C[C@@H](F)CN3C(=O)Cn3nc(C(N)=O)c4ccccc43)c2F)c1 [Compound 117, 1-(2-((2S,4R)-2-((5′-Acetyl-2′-chloro-2-fluoro-[1,1′-biphenyl]-3-yl)carbamoyl)-4-fluoropyrrolidin-1-yl)-2-oxoethyl)-1H-indazole-3-carboxamide] |  | < 1000 | 
CC(=O)c1cn(CC(=O)N2[C@H](C(=O)NCc3cccc(Cl)c3F)C[C@@H]3CCCC[C@@H]32)c2ccccc12 [Compound 1, (2S,3aS,7aS)-1-(2-(3-acetyl-1H-indol-1-yl)acetyl)-N-(3-chloro-2-fluorobenzyl)octa-hydro-1H-indole-2-carboxamide] |  | < 1000 | 
CC(=O)c1nn(CC(=O)N2[C@@H]3C[C@@H]3C[C@H]2C(=O)Nc2cccc(-c3ccc4[nH]cnc4c3Cl)c2F)c2ccccc12 [Compound 463, (1R,3S,5R)-2-(2-(3-acetyl-1H-indazol-1-yl)acetyl)-N-(3-(4-chloro-1H-benzo[d]imidazol-5-yl)-2-fluorophenyl)-2-azabicyclo[3.1.0] hexane-3-carboxamide] | < 1000 |  | 
NC(=O)c1nn(CC(=O)N2C[C@H](F)C[C@H]2C(=O)Nc2cccc(-c3ccc4nc[nH]c4c3F)c2F)c2ccccc12 [Compound 456, 1-(2-((2S,4R)-4-fluoro-2-((2-fluoro-3-(7-fluoro-1H-benzo[d]imidazol-6-yl)phenyl)carba-moyl)pyrrolidin-1-yl)-2-oxoethyl)-1H-indazole-3-carboxamide] | < 1000 |  | 
CC(=O)c1cn(CC(=O)N2C[C@H](F)C[C@H]2C(=O)Nc2cccc(-c3ccccc3Cl)c2F)c2c(C3CC3)cccc12 [Compound 115, (2S,4R)-1-(2-(3-acetyl-7-cyclopropyl-1H-indol-1-yl)acetyl)-N-(2′-chloro-2-fluorobiphenyl-3-yl)-4-fluoropyrrolidine-2-carboxamide] |  | < 1000 | 
